ChEMBL document CHEMBL3826905, “1'-Homonucleosides and their structural analogues: A review” (Eur J Med Chem, 2016)
Values after ≈ are worked out from the molar mass of the structure shown.

Legend:
[1] = target: T1, Inosine-adenosine-guanosine-nucleoside hydrolase (Trypanosoma brucei brucei, UniProt O15727); experiment: Inhibition of Trypanosoma brucei brucei inosine-adenosine-guanosine nucleoside hydrolase expressed in Escherichia coli
T1 sequence (O15727 whole entry): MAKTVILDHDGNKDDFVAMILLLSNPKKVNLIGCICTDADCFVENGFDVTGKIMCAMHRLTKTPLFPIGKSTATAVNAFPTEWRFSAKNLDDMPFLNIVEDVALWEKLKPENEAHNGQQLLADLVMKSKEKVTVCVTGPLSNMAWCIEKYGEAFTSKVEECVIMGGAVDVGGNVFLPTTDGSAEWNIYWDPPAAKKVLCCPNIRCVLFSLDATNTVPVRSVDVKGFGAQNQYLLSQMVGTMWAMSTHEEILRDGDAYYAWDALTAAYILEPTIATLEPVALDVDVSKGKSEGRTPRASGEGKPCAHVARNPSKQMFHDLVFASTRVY

[2] = target: T2, Inosine-uridine preferring nucleoside hydrolase (Crithidia fasciculata, UniProt Q27546); experiment: Inhibition of Crithidia fasciculata inosine-uridine nucleoside hydrolase expressed in Escherichia coli using p-nitrophenyl beta-D-ribofuranoside as substrate by xanthine oxidase coupled enzyme assay
T2 sequence (Q27546 whole entry): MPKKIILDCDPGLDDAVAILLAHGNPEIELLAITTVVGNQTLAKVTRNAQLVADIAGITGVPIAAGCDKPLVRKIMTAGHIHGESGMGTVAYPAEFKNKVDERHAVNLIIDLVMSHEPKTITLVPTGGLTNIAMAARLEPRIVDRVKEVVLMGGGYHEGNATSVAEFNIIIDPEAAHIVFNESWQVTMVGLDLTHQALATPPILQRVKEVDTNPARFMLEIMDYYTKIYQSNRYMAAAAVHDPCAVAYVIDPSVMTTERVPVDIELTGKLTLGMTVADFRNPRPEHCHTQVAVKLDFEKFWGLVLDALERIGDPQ

[3] = Antiproliferative activity against human Molt4/C8 cells; format: functional, cell-based; conditions: MOLT-4
[4] = Antiproliferative activity against mouse L1210/0 cells; format: functional, cell-based
[5] = Antiproliferative activity against human CEM/0 cells; format: functional, cell-based; conditions: CCRF-CEM
[6] = tested on: Human alphaherpesvirus 3; experiment: Antiviral activity against TK-deficient Varicella-zoster virus infected in HEL cells; format: functional, organism-based; conditions: Human alphaherpesvirus 3, HEL
[7] = tested on: Cytomegalovirus; experiment: Antiviral activity against Cytomegalovirus Davis 07/1 infected in HEL cells; format: functional, organism-based; conditions: Human betaherpesvirus 5, Davis 07/1, HEL
[8] = tested on: Cytomegalovirus; experiment: Antiviral activity against Cytomegalovirus AD169 infected in HEL cells; format: functional, organism-based; conditions: Human betaherpesvirus 5, AD169, HEL
[9] = Binding affinity to HSV1 uracil-DNA glycosylase after 30 mins by electrophoretic mobility shift assay; parameters: species or system Human alphaherpesvirus 1
[10] = tested on: Influenza A virus; experiment: Antiviral activity against Influenza A virus; format: functional, organism-based
[11] = Antiproliferative activity against mouse L1210/0 cells after 48 hrs by trypan blue staining method; format: functional, cell-based; conditions: L1210/0, 48 h
[12] = tested on: Human alphaherpesvirus 1; experiment: Antiviral activity against Herpes simplex virus 1 KOS assessed as inhibition of virus-induced cytopathic effect by cell based assay; format: functional; conditions: Human alphaherpesvirus 1, KOS
[13] = tested on: Human alphaherpesvirus 2; experiment: Antiviral activity against Herpes simplex virus 2 G assessed as inhibition of virus-induced cytopathic effect by cell based assay; format: functional; conditions: Human alphaherpesvirus 2, strain G
[14] = tested on: Human immunodeficiency virus 1; experiment: Antiviral activity against HIV1 infected in human MT4 cells assessed as inhibition of virus-induced cytopathic effect; format: functional, organism-based; conditions: Human immunodeficiency virus 1, MT4
[15] = tested on: unidentified influenza virus; experiment: Antiviral activity against Influenza virus; format: functional
[16] = Cytotoxicity against human E6SM cells assessed as alteration in cell morphology by microscopic method; format: cell-based
[17] = Cytotoxicity against African green monkey Vero cells assessed as alteration in cell morphology by microscopic method; format: cell-based; conditions: chlorocebus sabaeus
[18] = Cytotoxicity against human CEM/0 cells assessed as reduction in cell viability; format: cell-based, CCRF-CEM
[19] = Cytotoxicity against HEL cells assessed as reduction in cell viability; format: cell-based; conditions: human
[20] = Cytotoxicity against human HeLa cells assessed as alteration in cell morphology by microscopic method; format: cell-based
[21] = tested on: Human betaherpesvirus 5; experiment: Antiviral activity against HCMV infected in HEL cells assessed as inhibition of virus-induced cytopathic effect after 6 days; format: functional, organism-based; conditions: Human betaherpesvirus 5, HEL, 144 h
[22] = tested on: Human immunodeficiency virus 2; experiment: Antiviral activity against HIV2; format: functional, organism-based
[23] = tested on: Human immunodeficiency virus 1; experiment: Antiviral activity against HIV1; format: functional, organism-based
[24] = Inhibition of Escherichia coli methionyl-tRNA synthetase assessed as decrease in [35S]methionyl-tRNA generation
[25] = Inhibition of Trichomonas vaginalis purine nucleoside phosphorylase using […] as substrate by xanthine oxidase coupled enzyme assay

OC[C@H]1N[C@@H](Cn2cnc3c(O)ncnc32)[C@H](O)[C@@H]1O
Ki [1]: 3.6 µM
Ki [2]: 5.4 µM

Nc1ncnc2c1ncn2C[C@H]1CCC[C@H]1CO
IC50 [3]: 100 µg/mL (≈ 404 µM)
IC50 [4]: 100 µg/mL (≈ 404 µM)
IC50 [5]: 100 µg/mL (≈ 404 µM)

CC(C)(C)[Si](OC[C@H]1C[C@@H](Cn2cnc3c(N)ncnc32)c2cn(Cc3ccccc3)nc21)(c1ccccc1)c1ccccc1
EC50 [6]: 1500 nM
EC50 [7]: 500 nM
EC50 [8]: 500 nM

O=c1ccn(C[C@H]2C[C@H](O)[C@@H](CO)O2)c(=O)[nH]1
Kd [9]: 160 nM
IC50 [10]: 94.2 µg/mL (≈ 389 µM)

Nc1nc2c(ncn2COC(CO)CO)c(=O)[nH]1 [GANCICLOVIR]
EC50 [7]: 400 nM
EC50 [8]: 250 nM

Nc1nc2c(ncn2C[C@H]2C=C[C@@H](CO)C2)c(=O)[nH]1
IC50 [11]: > 200 µM

Nc1nc2c(ncn2C[C@H]2C[C@H](O)[C@@H](CO)O2)c(=O)[nH]1
MIC [12]: 5 µg/mL (≈ 17.8 µM)
MIC [13]: 5 µg/mL (≈ 17.8 µM)

OCC1CCCC1n1cnc2c(Cl)ncnc21 (configuration not stated)
IC50 [3]: 19 µg/mL (≈ 75.2 µM)
IC50 [4]: 19 µg/mL (≈ 75.2 µM)
IC50 [5]: 19 µg/mL (≈ 75.2 µM)

Nc1ccn(CC2(CO)CC=CC2)c(=O)n1
EC50 [14]: 56.4 µM

CC1(C)[C@@H](Cn2cnc3c(Cl)ncnc32)CC[C@@]1(C)CO
IC50 [3]: 3.8 µg/mL (≈ 12.3 µM)
MIC [15]: 10 µg/mL (≈ 32.4 µM)

OC[C@@H]1C=C[C@H](Cn2cnc3c(O)ncnc32)C1
IC50 [11]: > 200 µM

Nc1nc(Cl)c2ncn(C[C@H]3CC[C@@H](CO)C3)c2n1
CC50 [16]: 1 µg/mL (≈ 3.55 µM)
CC50 [17]: 1 µg/mL (≈ 3.55 µM)
CC50 [18]: 1 µg/mL (≈ 3.55 µM)
CC50 [19]: 1 µg/mL (≈ 3.55 µM)
CC50 [20]: 1 µg/mL (≈ 3.55 µM)

CC1(C)[C@@H](Cn2cnc3c(NC4CC4)nc(N)nc32)CC[C@@]1(C)CO
IC50 [11]: 13.9 µg/mL

Nc1ncnc2c1ncn2CC1(CO)CC=CC1
EC50 [21]: 78.1 µM

CC1(C)[C@@H](Cn2cnc3c(N)nc(N)nc32)CC[C@@]1(C)CO
EC50 [22]: 4 µg/mL (≈ 13.1 µM)
EC50 [23]: 4 µg/mL (≈ 13.1 µM)

CSCC[C@H](N)C(=O)N(O)C[C@H]1O[C@@H](Cn2cnc3c(N)ncnc32)[C@H](O)[C@@H]1O
IC50 [24]: 3.6 µM

CSCC[C@H](N)C(=O)OC[C@H]1O[C@@H](Cn2cnc3c(N)ncnc32)[C@H](O)[C@@H]1O
IC50 [24]: 3.6 µM

Nc1ncnc2c1ncn2C[C@@H]1N[C@H](CO)[C@@H](O)[C@H]1O
Ki [1]: 3.6 µM
Ki [25]: > 10 µM
Ki [2]: 5.4 µM

Nc1nc(Cl)c2ncn(C[C@@H]3C[C@H](CO)c4c(-c5ccccc5)nnc(-c5ccccc5)c43)c2n1
IC50 [11]: > 200 µM
